The values that follow come from patent publication US7517874B2 (priority 2007, dated 2009).

Assay [1] has as its target human CB1 receptor (hCB1) (Homo sapiens, UniProt P21554). Put plainly: cell-based. Format: cell-based. In a few lines: (§1)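 Agonism or inverse agonism was assessed as change in intracellular cAMP in CHO-K1 cells expressing human CB1 or rat CB2 (genomic DNA, pcDNA3.1).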
Another assay concerns the target T1, rat CB2 receptor (rCB2) (Rattus norvegicus, UniProt Q9QZN9).
T1 sequence (Q9QZN9 1-360): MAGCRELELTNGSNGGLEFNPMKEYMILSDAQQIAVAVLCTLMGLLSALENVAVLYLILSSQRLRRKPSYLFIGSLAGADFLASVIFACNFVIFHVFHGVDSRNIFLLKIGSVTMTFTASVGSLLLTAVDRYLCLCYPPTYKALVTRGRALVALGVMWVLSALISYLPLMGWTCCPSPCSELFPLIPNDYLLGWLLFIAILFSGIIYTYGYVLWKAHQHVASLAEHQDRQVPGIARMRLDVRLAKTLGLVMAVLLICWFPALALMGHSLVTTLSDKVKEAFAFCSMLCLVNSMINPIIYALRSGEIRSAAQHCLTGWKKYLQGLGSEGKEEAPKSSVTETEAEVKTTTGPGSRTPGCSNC
Put plainly: cell-based. Format: cell-based. The note with it: for +/− RCB2: agonist or inverse agonist at rCB2. A digest of the protocol: as §1

human CB1 receptor (hCB1), sequence (P21554 whole entry): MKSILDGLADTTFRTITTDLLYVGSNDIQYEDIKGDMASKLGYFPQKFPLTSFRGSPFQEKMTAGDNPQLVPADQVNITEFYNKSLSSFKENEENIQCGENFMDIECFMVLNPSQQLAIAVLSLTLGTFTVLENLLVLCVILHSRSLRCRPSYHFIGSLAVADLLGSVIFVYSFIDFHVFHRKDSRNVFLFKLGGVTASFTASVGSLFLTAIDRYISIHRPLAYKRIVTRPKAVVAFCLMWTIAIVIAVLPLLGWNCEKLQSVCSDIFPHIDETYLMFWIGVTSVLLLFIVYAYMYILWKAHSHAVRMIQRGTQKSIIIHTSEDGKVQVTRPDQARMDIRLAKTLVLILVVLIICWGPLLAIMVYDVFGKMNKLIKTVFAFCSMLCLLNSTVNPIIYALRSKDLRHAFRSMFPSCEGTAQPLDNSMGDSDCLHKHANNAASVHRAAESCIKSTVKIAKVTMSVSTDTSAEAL

With `CN1CCCn2c(-c3cc(Cl)ccc3F)nc(C(=O)N[C@@H](CC(C)(C)C)C(N)=O)c2C1` [Compound 585, (S)-N-(1-amino-4,4-dimethyl-1-oxopentan-2-yl)-3-(5-chloro-2-fluorophenyl)-8-methyl-6,7,8,9-tetrahydro-5H-imidazo[1,5-a][1,4]diazepine-1-carboxamide], in assay [1] (agonist or inverse agonist at hCB1), the “+/− HCB1” value is reported as “+”. At rat CB2 receptor (rCB2), the “+/− RCB2” value is given as “+”.

One may read the EC50 as the midpoint of the concentration-response curve. With `CN1CCn2c(-c3ccccc3)nc(C(=O)NCCCO)c2C1` [Compound 229, N-(3-hydroxypropyl)-7-methyl-3-phenyl-5,6,7,8-tetrahydroimidazo[1,5-a]pyrazine-1-carboxamide], the EC50 (in assay [1]; at rat CB2 receptor (rCB2)) was > 10 µM throughout.

Take `CNC(=O)[C@@H](NC(=O)c1nc(-c2ccccc2Cl)n2c1CN(C)CC2)C(C)(C)C` [Compound 253, (S)-3-(2-chlorophenyl)-N-(3,3-dimethyl-1-(methylamino)-1-oxobutan-2-yl)-7-methyl-5,6,7,8-tetrahydroimidazo[1,5-a]pyrazine-1-carboxamide]: the EC50 in assay [1] is > 10 µM. Also, the “+/− RCB2” value on rat CB2 receptor (rCB2) is listed as “+”.

With `CCN1CCn2c(-c3ccccc3)nc(C(=O)NC3C4(C)CCC(C4)C3(C)C)c2C1` (stereo not drawn) [Compound 144, 7-ethyl-3-phenyl-N-(1,3,3-trimethylbicyclo[2.2.1]heptan-2-yl)-5,6,7,8-tetrahydroimidazo[1,5-a]pyrazine-1-carboxamide], the EC50 in assay [1] was > 10 µM. Also, the “+/− RCB2” value on rat CB2 receptor (rCB2) is “−”.

With `CC12CCC(C1)C(C)(C)C2NC(=O)c1nc(-c2ccccc2)n2c1CN(C(=O)c1ccccc1)CC2` (stereo not drawn) [Compound 120, 7-benzoyl-3-phenyl-N-(1,3,3-trimethylbicyclo[2.2.1]heptan-2-yl)-5,6,7,8-tetrahydroimidazo[1,5-a]pyrazine-1-carboxamide], in assay [1], the EC50 was > 10 µM. On rat CB2 receptor (rCB2), the “+/− RCB2” value was “+”.

As for `CNC(=O)[C@@H](NC(=O)c1nc(-c2ccc(N(C)C)cc2)n2c1CN(C)CCC2)C(C)(C)C` [Compound 381, (S)-N-(3,3-dimethyl-1-(methylamino)-1-oxobutan-2-yl)-3-(4-(dimethylamino)phenyl)-8-methyl-6,7,8,9-tetrahydro-5H-imidazo[1,5-a][1,4]diazepine-1-carboxamide], the concentration for a half-maximal effect (EC50) in assay [1] was > 10 µM. The “+/− RCB2” value at rat CB2 receptor (rCB2) is given as “−”.

As for `CNC(=O)[C@@H](NC(=O)c1nc(-c2ccccc2)n2c1CN(C(C)C)CC2)C(C)(C)C` [Compound 85, (S)-N-(3,3-dimethyl-1-(methylamino)-1-oxobutan-2-yl)-7-isopropyl-3-phenyl-5,6,7,8-tetrahydroimidazo[1,5-a]pyrazine-1-carboxamide], in assay [1], the EC50 was > 10 µM. Besides, the “+/− RCB2” value on rat CB2 receptor (rCB2) was “−”.

With `CNC(=O)[C@@H](NC(=O)c1nc(-c2ccccc2)n2c1CN(CC1CC1)CCC2)C(C)(C)C` [Compound 321, (S)-8-(cyclopropylmethyl)-N-(3,3-dimethyl-1-(methylamino)-1-oxobutan-2-yl)-3-phenyl-6,7,8,9-tetrahydro-5H-imidazo[1,5-a][1,4]diazepine-1-carboxamide], the EC50 in assay [1] was > 10 µM. The “+/− RCB2” value at rat CB2 receptor (rCB2) is given as “−”.

Regarding `CNC(=O)[C@@H](NC(=O)c1nc(-c2ccc(F)cc2Cl)n2c1CN(C)CCC2)C(C)(C)C` [Compound 337, (S)-3-(2-chloro-4-fluorophenyl)-N-(3,3-dimethyl-1-(methylamino)-1-oxobutan-2-yl)-8-methyl-6,7,8,9-tetrahydro-5H-imidazo[1,5-a][1,4]diazepine-1-carboxamide], the EC50 in assay [1] was > 10 µM. Moreover, on rat CB2 receptor (rCB2), the “+/− RCB2” value is reported as “+”.

In the case of `CNC(=O)[C@@H](NC(=O)c1nc(-c2cccc(S(=O)(=O)N3CCCC3)c2)n2c1CN(C)CCC2)C(C)(C)C` [Compound 385, (S)-N-(3,3-dimethyl-1-(methylamino)-1-oxobutan-2-yl)-8-methyl-3-(3-(pyrrolidin-1-ylsulfonyl)phenyl)-6,7,8,9-tetrahydro-5H-imidazo[1,5-a][1,4]diazepine-1-carboxamide], the 50% effective concentration (EC50) (in assay [1]; at rat CB2 receptor (rCB2)) was > 10 µM throughout.

In the case of `CCN1CCCn2c(-c3ccccc3)nc(C(=O)N[C@H](C(=O)NC)C(C)(C)C)c2C1` [Compound 318, (S)-N-(3,3-dimethyl-1-(methylamino)-1-oxobutan-2-yl)-8-ethyl-3-phenyl-6,7,8,9-tetrahydro-5H-imidazo[1,5-a][1,4]diazepine-1-carboxamide], in assay [1], the EC50 is > 10 µM. Moreover, the “+/− RCB2” value at rat CB2 receptor (rCB2) is on record as “+”.

Regarding `CNC(=O)[C@@H](NC(=O)c1nc(/C=C/C2CCCCC2)n2c1CN(C)CCC2)C(C)(C)C` [Compound 439], the EC50 in assay [1] was > 10 µM. Moreover, the “+/− RCB2” value on rat CB2 receptor (rCB2) was “+”.

For the compound `CNC(=O)[C@H](CC(C)C)NC(=O)c1nc(-c2ccc(Cl)cc2F)n2c1CN(C)CCC2` [Compound 529, (S)-3-(4-chloro-2-fluorophenyl)-8-methyl-N-(4-methyl-1-(methylamino)-1-oxopentan-2-yl)-6,7,8,9-tetrahydro-5H-imidazo[1,5-a][1,4]diazepine-1-carboxamide], the EC50 in assay [1] was > 10 µM. Further, at rat CB2 receptor (rCB2), the “+/− RCB2” value is on record as “+”.

On to `CNC(=O)[C@@H](NC(=O)c1nc(-c2ccc(OC)cc2C)n2c1CN(C)CCC2)C(C)(C)C` [Compound 343, (S)-N-(3,3-dimethyl-1-(methylamino)-1-oxobutan-2-yl)-3-(4-methoxy-2-methylphenyl)-8-methyl-6,7,8,9-tetrahydro-5H-imidazo[1,5-a][1,4]diazepine-1-carboxamide], for which the EC50 (in assay [1]; on rat CB2 receptor (rCB2)) was > 10 µM in each case.

Turning to `CNC(=O)[C@@H](NC(=O)c1nc(CCCN2CCCC2)n2c1CN(C)CCC2)C(C)(C)C` [Compound 502, (S)-N-(3,3-dimethyl-1-(methylamino)-1-oxobutan-2-yl)-8-methyl-3-(3-(pyrrolidin-1-yl)propyl)-6,7,8,9-tetrahydro-5H-imidazo[1,5-a][1,4]diazepine-1-carboxamide], the half-maximal effective concentration (EC50) in assay [1] is > 10 µM. At rat CB2 receptor (rCB2), the “+/− RCB2” value is listed as “+”.

For `CC(C)(C)CC(=O)c1nc(-c2ccccc2)n2c1CNCC2` [Compound 291, 3,3-dimethyl-1-(3-phenyl-5,6,7,8-tetrahydroimidazo[1,5-a]pyrazin-1-yl)butan-1-one 2,2,2-trifluoroacetate], in assay [1], the EC50 is > 10 µM. The “+/− RCB2” value at rat CB2 receptor (rCB2) was “−”.

With `CNC(=O)[C@@H](NC(=O)c1nc(-c2ccccc2)n2c1CNCC2)C(C)(C)C` [Compound 2, (S)-N-(3,3-dimethyl-1-(methylamino)-1-oxobutan-2-yl)-3-phenyl-5,6,7,8-tetrahydroimidazo[1,5-a]pyrazine-1-carboxamide], in assay [1], the EC50 is > 10 µM. The “+/− RCB2” value at rat CB2 receptor (rCB2) is “+”.

With `CNC(=O)[C@@H](NC(=O)c1nc(-c2cc(C)ccc2F)n2c1CN(C)CC2)C(C)(C)C` [Compound 251, (S)-N-(3,3-dimethyl-1-(methylamino)-1-oxobutan-2-yl)-3-(2-fluoro-5-methylphenyl)-7-methyl-5,6,7,8-tetrahydroimidazo[1,5-a]pyrazine-1-carboxamide], in assay [1], the EC50 is > 10 µM. Further, at rat CB2 receptor (rCB2), the “+/− RCB2” value was “−”.

As to `CC(C)(C)[C@H](CO)NC(=O)c1nc(-c2ccccc2)n2c1CNCC2` [Compound 23, (R)-N-(1-hydroxy-3,3-dimethylbutan-2-yl)-3-phenyl-5,6,7,8-tetrahydroimidazo[1,5-a]pyrazine-1-carboxamide], the EC50 in assay [1] is > 10 µM. Besides, on rat CB2 receptor (rCB2), the “+/− RCB2” value is reported as “+”.

In the case of `CNC(=O)[C@@H](NC(=O)c1nc(C#Cc2ccccc2)n2c1CN(C)CC2)C(C)(C)C` [Compound 204, (S)-N-(3,3-dimethyl-1-(methylamino)-1-oxobutan-2-yl)-7-methyl-3-(phenylethynyl)-5,6,7,8-tetrahydroimidazo[1,5-a]pyrazine-1-carboxamide], the EC50 (in assay [1]; at rat CB2 receptor (rCB2)) was > 10 µM each time.

Take `CC(C)CN1CCn2c(-c3ccccc3)nc(C(=O)NCC(C)(C)C)c2C1` [Compound 58, 7-isobutyl-N-neopentyl-3-phenyl-5,6,7,8-tetrahydroimidazo[1,5-a]pyrazine-1-carboxamide]: the EC50 in assay [1] was > 10 µM. Further, at rat CB2 receptor (rCB2), the “+/− RCB2” value was “−”.

As for `CNC(=O)[C@@H](NC(=O)c1nc(-c2ccc(Cl)cc2F)n2c1CN(CC(C)C)CCC2)C(C)(C)C` [Compound 322, (S)-3-(4-chloro-2-fluorophenyl)-N-(3,3-dimethyl-1-(methylamino)-1-oxobutan-2-yl)-8-isobutyl-6,7,8,9-tetrahydro-5H-imidazo[1,5-a][1,4]diazepine-1-carboxamide], in assay [1], the EC50 is > 10 µM. The “+/− RCB2” value at rat CB2 receptor (rCB2) is “−”.

As to `COC(=O)N1CCn2c(-c3ccc(Cl)cc3)nc(C(=O)NCCC(C)C)c2C1` [Compound 183, methyl 3-(4-chlorophenyl)-1-(isopentylcarbamoyl)-5,6-dihydroimidazo[1,5-a]pyrazine-7(8H)-carboxylate], in assay [1], the EC50 is > 10 µM. For the same compound, at rat CB2 receptor (rCB2), the “+/− RCB2” value is “−”.

Regarding `CN1CCCn2c(-c3ccccc3)nc(C(=O)N[C@H](C(=O)NC3CC3)C(C)(C)C)c2C1` [Compound 477, (S)-N-(1-(cyclopropylamino)-3,3-dimethyl-1-oxobutan-2-yl)-8-methyl-3-phenyl-6,7,8,9-tetrahydro-5H-imidazo[1,5-a][1,4]diazepine-1-carboxamide], the EC50 in assay [1] is > 10 µM. Moreover, the “+/− RCB2” value at rat CB2 receptor (rCB2) was “+”.
